Data set [1] is described as follows: Stability test in liver microsomes. The class given is in vitro ADME, CD-1 mouse. Conditions: mouse liver microsomes, 0.5 mg/mL, 1.0 µM substrate. Here is the method: (§1) Phase I metabolic stability of the test compounds in liver microsomes of CD-1 mice, Sprague-Dawley rats, and humans was assessed.
(§2) The animal and human liver microsomes used in the test system were purchased from Xenotech, Corning, or other qualified suppliers and stored in a freezer at a temperature below -60 °C prior to use. The information of the animal and human liver microsomes used was as follows:
(§3) The test samples and the reference compounds were separately incubated with animal and human liver microsomes at 37±1 °C for a period of incubation time of up to 60 min. The samples were taken out at the indicated time points, and the reaction was stopped with acetonitrile or another organic solvent containing an internal standard. After centrifugation, the resulting supernatants were assayed by the liquid chromatography-tandem mass spectrometry (LC-MS/MS) method.
(§4) Microsomes of each species were diluted into a 2× working solution with a 100 mM potassium phosphate buffer. […]
(§5) Incubation was performed in a 96-well plate. Eight incubation plates were prepared and designated T0, T5, T15, T30, T45, T60, Blank60, and NCF60, respectively. The first 6 plates corresponded to reaction time points of 0 min, 5 min, 15 min, 30 min, 45 min, and 60 min, respectively. No test sample or reference compound was added to the Blank60 plate, and samples were taken after 60 min of incubation. In the NCF60 plate, incubation was performed for 60 min using the potassium phosphate buffer instead of the NADPH regeneration system solution. Three replicates were made for samples in all conditions.
(§6) The microsomes and the test sample or reference compound were mixed, and then the incubation plates Blank60, T5, T15, T30, T45, and T60 except for T0 and NCF60 were placed in a 37 °C water bath for pre-incubation for about 10 min. In the incubation plate T0, a stop solution was first added, followed by the addition of the NADPH regeneration system working solution, and 98 µL of the potassium phosphate buffer was added to each sample well of the incubation plate NCF60 to initiate the reaction. After the pre-incubation of the incubation plates Blank60, T5, T15, T30, T45, and T60 was completed, 98 µL of the NADPH regeneration system working solution was added to each sample well to initiate the reaction. The reaction temperature was 37±1 °C, the final volume of the reaction was 200 µL, and the reaction system included 0.5 mg/mL microsomes, 1.0 µM substrate, 1 mM NADP, 6 mM ISO, and 1 unit/mL IDH.
(§7) At 5 min, 15 min, 30 min, 45 min, and 60 min, a cold stop solution containing an internal standard was added to the reaction plate to stop the reaction.
(§8) All the reaction plates after the reaction was stopped were shaken well and centrifuged at 3220× g at 4 °C for 20 min. After the supernatant was diluted at a certain ratio, LC-MS/MS analysis was performed.
(§9) Sample analysis was performed by the liquid chromatography-tandem mass spectrometry (LC-MS/MS) method without standard curves and quality control samples. Semi-quantitative determination was performed according to the ratio of the analyte peak area to the internal standard peak area. The retention times of the analyte and internal standard, the chromatogram acquisition, and chromatogram integration were processed using the Analyst software (Sciex, Framingham, Massachusetts, USA).
(§10) According to the well stir model, the hepatic intrinsic clearance and hepatic clearance can be converted through the following formula. CL(liver) = (CLint(liver)×Qh)/(CLint(liver)+Qh) [formula]

Data set [2] is described as follows: Stability test in liver microsomes. In kind it is in vitro ADME. Conditions: Human liver microsomes, 0.5 mg/mL, 1.0 µM substrate. Here is the method:
as §1, §2, §3, §4, §5, §6, §7, §8, §9, §10
A general note: Microsomes from liver hold many membrane-bound enzymes, among them those of drug oxidation.

Data set [3] concerns YAP-TEAD transcription complex. Kind of data set: YAP-TEAD reporter gene assay (dual luciferase, stably transfected 293T cells). The class given is cell-based. Conditions: Homo sapiens, HEK-293T. Here is the method:
YAP-TEAD reporter gene The YAP-TEAD reporter gene assay was performed as follows. Firstly, the 8xGTIIC promoter sequence ([…] GTACTGTTGGTAAA) was constructed into a pGL4.20(luc2-Puro) plasmid, and the TK promoter ([…]) unrelated to the hippo pathway was constructed into a pGL4.78(hRlucCP/Hygro) plasmid, thereby constructing stably transfected 293T cells that can stably and continuously express the transcriptional activity of the YAP-TEAD transcription complex. After selection and identification of individual clones, the clones were grown and maintained in a DMEM medium containing 10% fetal bovine serum, penicillin-streptomycin solution, 1 µg/mL puromycin, and 150 µg/mL hygromycin. To perform reporter gene assays with the compounds to be tested, the well-growing cells described above were plated in a 384-well plate at a cell density of 3000 cells per well, with 90 µL per well. The periphery was sealed with an appropriate amount of PBS to prevent evaporation of water from the peripheral wells. Administration was performed on the next day after the cell plating. The test compounds were added at different concentration gradients, and three replicate wells were set for each concentration point. The compound concentration started at 5 µM and was diluted seven times with a 5-fold gradient. A corresponding negative control group treated with DMSO was also set up. After 24 h of drug treatment, the detection reagents were prepared first. The Dual-Lumi™ Firefly luciferase detection reagent and Dual-Lumi™ Renilla luciferase detection buffer were dissolved and brought to room temperature. […]. According to the amount of 100 µL of Dual-Lumi™ Renilla luciferase detection working solution required for the detection of each sample, an appropriate amount of Dual-Lumi™ Renilla luciferase detection working solution was prepared. […]. The cell culture plate was taken out and allowed to equilibrate at room temperature for 10 min (usually no more than 30 min). Then, 100 µL of Dual-Lumi™ Firefly luciferase detection reagent was added to each well of a 96-well plate (25 µL per well for the 384-well plate), and the mixture was mixed well. The mixture was then incubated at room temperature (about 25 °C) for 10 min to stabilize the luminescent signal, and then chemiluminescence was detected using a multimode microplate reader with a chemiluminescence detection function. Subsequently, the detection of Renilla luciferase began. Firstly, 100 µL of Dual-Lumi™ Renilla luciferase detection working solution was added to each well of a […] (25 µL per well for the 384-well plate), and the mixture was mixed well. The mixture was then incubated at room temperature (about 25 °C) for 10 min to stabilize the luminescent signal. Finally, chemiluminescence was detected using a multimode microplate reader with a chemiluminescence detection function. The obtained data were analyzed using GraphPad Prism 7.0 software. A sigmoidal dose-survival rate curve was plotted using a non-linear regression model, and the IC50 values were calculated.
Background: In a reporter assay the amount or activity of a reporter protein is the signal.

The nature of data set [4]: Pharmacokinetic test in mice (low dose). The class given is in vivo, Balb/c mice. Particulars: mouse, mice; for AUC(0-t): read-out: AUClast; for clearance: read-out: Cl (converted); for half-life: read-out: T1/2 (converted); for bioavailability: PO 10 mg/kg vs IV 2 mg/kg, read-out: F%; for Cmax: read-out: Cmax. Here is the method:
The compounds of the present disclosure were administered to Balb/c mice by single intravenous injection and oral gavage, and the plasma of the mice at each time point was collected. The concentration of the compounds to be tested in BALB/C plasma was detected using the LC-MS/MS analysis method, and pharmacokinetic analysis was performed.
The mixture was vortexed, shaken, and ultrasonicated. The remaining volume of 25% sulfobutylether-β-cyclodextrin (sterilized) was added to prepare the final concentration solution or suspension.
Intravenous injection formulations will be directly administered in animal experiments without filtration. The IV drug preparation vials were disinfected in an infrared sterilization cabinet one day in advance.
Intravenous injection: Administration was performed via the tail vein. After the needle was inserted, the syringe was slowly […].
Gavage: Gavage needle and syringe of an appropriate type were selected. The gavage needle was inserted from the root of the tongue into the esophagus until it reached near the cardia of the stomach, then the drug formulation was injected, and the gavage needle was withdrawn. When disposable plastic gavage needles were used, one needle was used for each group.
At each time point, 60 µL of whole blood was collected from the submandibular vein or tail vein (except for the IV group). The blood sample was added to a pre-cooled anticoagulant blood collection tube containing anticoagulant EDTA-K2 (1 µL, 15% EDTA-K2 solution), placed on wet ice, and centrifuged (3000 g, 4 °C, 10 min) within 1 h. The plasma was immediately collected after centrifugation, transferred to an EP tube, and stored at -90 °C to -60 °C.
Plasma concentration detection: A developed LC-MS/MS method was used to detect the compounds in plasma.
The plasma concentration-time data were analyzed using a non-compartmental model in the Phoenix® WinNonlin® (Version 8.2, Pharsight, Mountain View, CA).

Data set [5] can be described thus: Stability test in liver microsomes. Conditions: rat liver microsomes, 0.5 mg/mL, 1.0 µM substrate. In kind it is in vitro ADME, SD rat. Here is the method:
as §1, §2, §3, §4, §5, §6, §7, §8, §9, §10

The subject of data set [6] is NCI-H2452 (NF2 wide-type). Kind of data set: Inhibition of cell proliferation (CellTiter-Lumi). The class given is cell-based. Particulars: Homo sapiens, 72 h + another 72 h treatment. How it is done:
(§11) NCI-H2052 (NF2 mutant), NCI-H226 (NF2 mutant), NCI-H2452 (NF2 wide-type), NCI-H28 (NF2 wide-type), and MSTO-211H (NF2 wide-type) cells were cultured in RPMI 1640 complete media.
(§12) The normally growing cells described above were digested with a trypsin cell-digesting solution, centrifuged, counted, and then plated in a 96-well plate at a density of 1000 cells per well. Administration was performed 24 h after the cell plating. Inhibitors at different concentration gradients were added at 10 µL per well, and three replicate wells were set for each concentration point. The starting concentration was 20 µM and diluted 8 times with a 4-fold gradient. A corresponding negative control group treated with 0.1% DMSO was also set up. After 72 h of drug treatment, the cell culture plate to be tested was taken out of the incubator. The culture medium in the 96-well plate was pipetted, and 190 µL of fresh RPMI 1640 complete medium was added. Another administration was performed, and the cells were cultured for another 72 h. The 96-well plate was taken out and allowed to equilibrate at room temperature for 10 min. […] After shaking for two minutes, the mixture was reacted at room temperature for 10 min. Then, 150 µL of liquid was pipetted from the transparent 96-well plate and transferred to a white 96-well plate for chemiluminescence reading. The background value was subtracted from the value for each well to calculate the cell survival rate. Survival rate (%) = […]. Sample is the chemiluminescence of the drug-treated group, and Vehicle is the […] of the DMSO control group. A sigmoidal dose-survival rate curve was plotted using a non-linear regression model in the GraphPad Prism 7.0 software, and the IC50 values or GI50 values were calculated.

In data set [7] the test system is NCI-H28 (NF2 wide-type). Kind of data set: Inhibition of cell proliferation (CellTiter-Lumi). The class given is cell-based. Particulars: Homo sapiens, 72 h + another 72 h treatment. Here is the method:
as §11, §12

Data set [8] can be described thus: Saturated solubility in FaSSIF solution. The class given is physicochemical. Particulars: room temperature, stirred overnight. Here is the method:
Efficacy Experimental Example 9: Test of Saturated Solubility of Samples in FaSSIF Solution
About 0.21 g of sodium hydroxide, about 2.24 g of sodium dihydrogen phosphate dihydrate, and 3.09 g of sodium chloride were weighed out and dissolved in 500 mL of water, and after dissolution, the pH was adjusted to 6.5 with 1 N sodium hydroxide or 1 N hydrochloric acid.
112 mg of FaSSIF solid was weighed out and placed in a 50 mL volumetric flask, and the buffer described above was added for dissolution. The resulting solution was diluted to volume, mixed well, and left to stand at room temperature for 2 h or more.
Test sample: About 1 mg of the test sample was taken, and 1 mL of FaSSIF solution was added. The mixture was stirred at room temperature overnight and centrifuged, and the supernatant was collected and injected for analysis.
Reference sample solution: About 1.5 mg of the test sample was precisely weighed out and placed in a 50 mL volumetric flask, and DMF was added for dissolution. The resulting solution was diluted to volume and mixed well.
The peak of the main component of the reference sample and the peak of the test sample with the same retention time were integrated, and the concentration thereof in the FaSSIF solution was calculated according to the external standard method.

The nature of data set [9]: in vivo. Particulars: mouse, plasma, po, 100 mg/kg.
Protocol: After adding 5% DMSO, the mixture was vortexed. 15% HS15 was then added, and the mixture was vortexed again. Finally, a 10% aqueous cyclodextrin solution was added, and the resulting mixture was vortexed to prepare the final concentration solution or suspension.

Like-named read-outs stand apart in the source and are kept apart here.

Compound `Cn1cc2c3cc(P(C)(C)=O)ccc3n(-c3ccc(C(F)(F)F)cc3)c2n1` [Example 16] came in with a half-life at 1 µM in data set [1] greater than 2.42 h. For the same compound, the half-life at 1 µM in [2] was greater than 2.42 h. In data set [3] (24 h), this compound gave an IC50 of 31.8 nM. In data set [4] (in vivo, IV 2 mg/kg), the MRT stood at 3.6 h, the AUC(0-t) came to 5.44 µM·h, the clearance was 13.3 mL/min/kg and the half-life was 2.7 h. Moreover, in data set [4] (in vivo, PO 10 mg/kg), the MRT was 5.3 h, the AUC(0-t) stood at 63.5 µM·h, the Cmax came out at 7.17 µM and the half-life was 3.1 h. For the same compound, the bioavailability in [4] (in vivo) was 206%. For the same compound, the half-life at 1 µM in data set [5] is greater than 2.42 h.
With `Cc1cc(Oc2ccc(C(F)(F)F)cc2)c2ccc(P(C)(C)=O)cc2c1` [Example 29], the IC50 in [6] was greater than 1250 nM; in [7], greater than 1250 nM; in data set [3] (293T reporter cells, 24 h of drug treatment, read-out: IC50), 4.65 nM. For the same compound, the AUC(0-t) in data set [4] (plasma, IV 2 mg/kg) worked out at 50.8 µM·h; in [4] (plasma, PO 10 mg/kg) it was 251 µM·h; in data set [9], 2160 µM·h. Also, the clearance in [4] (plasma, IV 2 mg/kg) was 0.4 mL/min/kg. Besides, the half-life in data set [4] (plasma, IV 2 mg/kg) was 63.5 h; in data set [4] (plasma, PO 10 mg/kg), 17 h. For the same compound, the bioavailability in [4] (plasma) worked out at 99%. In addition, in [4] (plasma, PO 10 mg/kg), the highest concentration (Cmax) worked out at 13.3 µM. Further, the “FaSSIF(pH = 6.5)” value in data set [8] is recorded as 223.4 ug/mL.

As usually defined, the IC50 is the concentration needed to halve the response being measured. The MRT is a mean duration of stay, worked out from the concentration-time curve. By Cmax is commonly meant the highest concentration seen after dosing.

(Values after patent publication EP4596561A1, “PHOSPHORUS-CONTAINING COMPOUND, PHARMACEUTICAL COMPOSITION AND USE THEREOF” (Suzhou Genhouse Bio Co., Ltd., priority 2022, dated 2024).)
